36 molecules from BindingDB's records for doi:10.7270/Q2H70D5W (University of Pittsburgh, 2007) can be followed below.

This experiment deals with Gag-Pol polyprotein (Human immunodeficiency virus type 1 group M subtype B (isolate HXB2), UniProt P04585). Briefly: concentration-response of HIV-1 RNase H blockers – biochemical, probe assessment, dose response (AID 652). To be noted: pH 8; 23 °C.
Turning to `O=C(NCc1ccco1)c1cccnc1-c1nc2ccccc2s1` [2-(1,3-benzothiazol-2-yl)-N-(2-furanylmethyl)-3-pyridinecarboxamide], the IC50 – broadly, the point on the concentration scale where inhibition reaches its midpoint – came to 3.26 µM. Regarding `Nc1c(C(=O)N2CCOCC2)sc(=S)n1-c1ccccc1` [(4-amino-3-phenyl-2-sulfanylidene-1,3-thiazol-5-yl)-morpholin-4-ylmethanone], it took 4.97 µM to reach half-maximal inhibition (IC50). In the case of `CC1CCN(S(=O)(=O)c2ccc(NC(=O)Cn3nnc(-c4ccccc4)n3)cc2)CC1` [MLS000032813], the IC50 worked out at 22 µM. Under `Cc1ccc(-n2c(N)c(C(=O)N3CCOCC3)sc2=S)cc1` [4-amino-3-(4-methylphenyl)-5-(4-morpholinylcarbonyl)-1,3-thiazole-2(3H)-thione] stands 4.9 µM. For the molecule `CCn1cc(C(=O)NCc2ccco2)c(=O)c2cc(S(=O)(=O)N3CCc4ccccc4C3)ccc21` [6-(3,4-dihydro-1H-isoquinolin-2-ylsulfonyl)-1-ethyl-N-(2-furanylmethyl)-4-oxo-3-quinolinecarboxamide], inhibition was half-maximal at 9.32 µM (IC50). In turn, `COc1cc(OC)c(C2CC(=O)N3CN(c4ccccc4C)CSC3=C2C#N)cc1OC` (stereo unspecified) [MLS000080656] gave an IC50 of 4.51 µM. Under `COC(=O)c1ccc2c(=O)n(Cc3ccco3)c(SCC(=O)Nc3ccc(C)c(Cl)c3)nc2c1` [2-[[2-(3-chloro-4-methyl-anilino)-2-keto-ethyl]thio]-3-(2-furfuryl)-4-keto-quinazoline-7-carboxylic acid methyl ester] stands 2.79 µM. Molecule `CCOc1cc(C2CC(=O)N3CN(C4CCCCC4)CSC3=C2C#N)ccc1O` (stereo unspecified) [3-cyclohexyl-8-(3-ethoxy-4-hydroxy-phenyl)-6-keto-2,4,7,8-tetrahydropyrido[2,1-b][1,3,5]thiadiazine-9-carbonitrile] gave an IC50 of 19.5 µM. `CCCCC[C@H](O)C=C[C@H]1C=CC(=O)[C@@H]1C/C=C\CCCC(=O)O` [(Z)-7-[(1R,5S)-2-oxidanylidene-5-[(E,3S)-3-oxidanyloct-1-enyl]cyclopent-3-en-1-yl]hept-5-enoic acid] displayed an IC50 of 1.06 µM. In the case of `COc1cc(-c2nn3c(Cc4ccccc4)nnc3s2)cc(OC)c1OC` [3-(phenylmethyl)-6-(3,4,5-trimethoxyphenyl)-[1,2,4]triazolo[3,4-b][1,3,4]thiadiazole], it took 4.78 µM to reach half-maximal inhibition (IC50). `COc1ccc2nc(O)c(CN(C3CCCCC3)C(c3nnnn3Cc3ccco3)C(C)C)cc2c1` (stereo unspecified) [3-[[cyclohexyl-[1-[1-(2-furanylmethyl)-5-tetrazolyl]-2-methylpropyl]amino]methyl]-6-methoxy-1H-quinolin-2-one] showed an IC50 of 1.03 µM.

In turn, `CCOC(=O)C(C(C)=O)c1c(Br)c(O)c(O)c2c(C(=O)c3ccc(C)cc3)coc12` (stereo unspecified) [2-(6-bromo-4,5-dihydroxy-3-p-toluoyl-benzofuran-7-yl)-3-keto-butyric acid ethyl ester] showed an IC50 of 0.421 µM. Take `CCOC(=O)N(c1ccccc1)P1(=S)OCCO1` [MLS000090301]: the IC50 is 3.25 µM. In turn, `Cc1cccc(NC(=O)Cn2c(C)c(C#N)c3ccccc32)c1C` [2-(3-Cyano-2-methyl-indol-1-yl)-N-(2,3-dimethyl-phenyl)-acetamide] displayed an IC50 of 29 µM. `COc1ccc(N2CSC3=C(C#N)C(c4cc(OC)c(OC)cc4OC)CC(=O)N3C2)c(OC)c1` (stereo unspecified) [MLS000117261] registered an IC50 of 11.9 µM. This IC50 is about 2.4-fold lower than that of the molecule before.

As for `CCOC(=O)N1CCc2c(sc3c2C(=O)NC(c2ccc(-c4ccc(Cl)cc4)o2)N3)C1` (stereo unspecified) [2-[5-(4-chlorophenyl)-2-furanyl]-4-oxo-1,2,3,5,6,8-hexahydropyrido[2,3]thieno[2,4-d]pyrimidine-7-carboxylic acid ethyl ester], the IC50 is 5.27 µM. This IC50 is about 2.3-fold lower than that of the molecule before.

In the case of `CCCCCn1c(SCCCC)nc2c1c(=O)[nH]c(=O)n2C`, it took 2.48 µM to reach half-maximal inhibition (IC50). Under `Cc1cc(NC(=O)CSc2nc(C3CC3)nc3sc4c(c23)CCC(C)C4)no1` (stereo unspecified) [2-(2-Cyclopropyl-7-methyl-5,6,7,8-tetrahydro-benzo[4,5]thieno[2,3-d]pyrimidin-4-ylsulfanyl)-N-(5-methyl-isoxazol-3-yl)-acetamide] stands 5.41 µM; under `CC1CC(C)(C)NC(=S)S1` (stereo unspecified) [4,4,6-trimethyl-1,3-thiazinane-2-thione], 5.24 µM.

In turn, `CC(C)c1ccc(C2CC(=O)N3CN(C)CSC3=C2C#N)cc1` (stereo unspecified) [MLS000117258] came in with an IC50 of 10.7 µM. `Cc1ccc(-n2c(N)c(C(N)=O)sc2=S)cc1` [4-amino-3-(4-methylphenyl)-2-sulfanylidene-1,3-thiazole-5-carboxamide] showed an IC50 of 2.58 µM. Against the preceding molecule, the IC50 is about 4.1-fold lower. Regarding `O=c1c2ccccc2sn1-c1cc(S(=O)(=O)N2CCOCC2)ccc1N1CCOCC1` [2-(2-morpholin-4-yl-5-morpholin-4-ylsulfonyl-phenyl)-1,2-benzothiazol-3-one], the IC50 stood at 0.579 µM.

`O=C(CSc1nnc[nH]1)c1ccccc1` came in with an IC50 of 5.52 µM. `Cc1oc(-c2ccc(Cl)cc2)cc1-c1nn2c(-c3ccoc3C)nnc2s1` [6-[5-(4-chlorophenyl)-2-methyl-3-furanyl]-3-(2-methyl-3-furanyl)-[1,2,4]triazolo[3,4-b][1,3,4]thiadiazole] displayed an IC50 of 1.18 µM. `C=CCSc1nc2c(c(=O)[nH]c(=O)n2C)n1CC` [7-ethyl-3-methyl-8-prop-2-enylsulfanylpurine-2,6-dione] had an IC50 of 3.75 µM. `c1ccc2c(c1)nnn2Cc1nnc2sc(-c3ccc4c(c3)OCCO4)nn12` [1-{[6-(2,3-dihydro-1,4-benzodioxin-6-yl)[1,2,4]triazolo[3,4-b][1,3,4]thiadiazol-3-yl]methyl}-1H-1,2,3-benzotriazole]: the IC50 was found to be 1.69 µM.

The molecule `CCCCCCNC(=O)c1c(N)n(N=Cc2ccco2)c2nc3ccccc3nc12` [SMR000042381] gave an IC50 of 2.77 µM. This IC50 is about 1.6-fold higher than that of the molecule before. In turn, `c1c2c(cc3sc(N4CCOCC4)nc13)OCO2` [6-(4-morpholinyl)-[1,3]dioxolo[4,5-f][1,3]benzothiazole] showed an IC50 of 3.59 µM. The IC50 values of the last two molecules are within 1.5-fold of each other. As for `COC(=O)N(c1ccc(OC)cc1)P1(=S)OCCC(C)O1` (stereo unspecified) [MLS000043492], the IC50 was 1.02 µM. `CCc1ccccc1N1CSC2=C(C#N)C(c3ccccc3F)CC(=O)N2C1` (stereo unspecified) [3-(2-ethylphenyl)-8-(2-fluorophenyl)-6-keto-2,4,7,8-tetrahydropyrido[2,1-b][1,3,5]thiadiazine-9-carbonitrile] returned an IC50 of 1.22 µM. Turning to `O=C(Nc1ccc(N2CCOCC2)cc1)c1ccc2nc(-c3ccco3)c(-c3ccco3)nc2c1` [2,3-bis(2-furanyl)-N-[4-(4-morpholinyl)phenyl]-6-quinoxalinecarboxamide], the IC50 was 22.6 µM. The molecule `Cc1cccc(Nc2nnc(S)s2)c1C` [5-(2,3-dimethylanilino)-3H-1,3,4-thiadiazole-2-thione] came in with an IC50 of 3.59 µM.

For the molecule `Cc1ccc(-n2c(N)c(C(=O)N3CCN(C)CC3)sc2=S)cc1` [4-amino-3-(4-methylphenyl)-5-[(4-methyl-1-piperazinyl)carbonyl]-1,3-thiazole-2(3H)-thione], the IC50 is > 50 µM.

With `COC(=O)c1cccc(N2C(=O)C(Cl)=C(N3CCOCC3)C2=O)c1` [SMR000014938], the IC50 is > 50 µM.

The molecule `S=c1[nH]c(C2CC2)nc2ccccc12` [SMR000075851] returned an IC50 of 2.06 µM.

Turning to `C=CCn1c(SCC(=O)NC(=O)NCc2ccco2)nc2sc(C)c(C)c2c1=O` [2-(5,6-dimethyl-4-oxidanylidene-3-prop-2-enyl-thieno[2,3-d]pyrimidin-2-yl)sulfanyl-N-(furan-2-ylmethylcarbamoyl)ethanamide], the IC50 came out at 19 µM.
